Here are results for 98 molecules from the pKa sets of Baltruschat and Czodrowski (2020).

The term pKa denotes the negative logarithm of the acid dissociation constant. A lower pKa goes with a stronger acid or weaker base. Molecule `Oc1ccc2c(c1)Nc1ccccc1N2` had a pKa (basic group) of 1.8. Still for that read-out and setting: the figure for `Cc1ccccc1C(=N)c1ccccc1` is 7.21. Same read-out and setting: then `Nc1ccc([I+]c2ccccc2)cc1`, with 1.66; and `CC[NH+](CC)CCNc1nc(N)nc(C)c1C`, with 7.9.

`O=C(O)c1ccccc1O[C@H]1O[C@@H](CO)[C@H](O)[C@@H](O)[C@@H]1O` gave a pKa (acidic group) of 3.6.

As for `Clc1ccc(-c2ccc(Cl)cn2)nc1`, the pKa (basic group) turned out to be 3.96. As to `[NH3+]CCCCCCCCCC(=O)O`, the pKa (acidic group) came out at 4.57. Same read-out and setting: then `CC1(C)N=C(C(=O)CC(=O)C(F)(F)F)C(C)(C)N1O`, with 4.66. `C=C(C)C(=O)NCCN(C)C` displayed a pKa (basic group) of 8.54. Same read-out and setting: then `c1ccc2c(c1)[NH+]=C(c1ccncc1)[NH2+]2`, with 1.96. The same measure, in the same setting: the figure for `CCN(CC)c1ccccc1` is 6.6; for `COCC(C)CN(C)C` (stereo unspecified) it is 9.69.

Consider `NCCNCCCO`, for which, under “basic group”, the pKa was found to be 9.67. Turning to `O/N=C1C=C/C(=N\O)c2cccnc2/1`, the pKa by setting is: (acidic group) 10; (basic group) 3.7. Consider `Cn1cc([O-])nc1N`, for which the pKa (basic group) was determined as 13.4. As to `CNCCc1ccccc1`, the pKa (basic group) is 10.2.

In the case of `Cc1[nH]ccc1C(=O)O`, the pKa (acidic group) was determined as 5.8. The same measure, in the same setting: then `Cc1ccc2c(c1[O-])-c1c-2ccc(C)c1O`, with 11.5. In the case of `c1ccc(-c2ccn[nH]2)nc1`, under “basic group”, the pKa was determined as 4.46. Where the note is “acidic group”, `S=C(Nc1ccc(Br)cc1)c1cccc(Br)c1` came in with a pKa of 9.96. As for `CN(C)/C=N/c1ccc(O)cc1`, the pKa reads like this: (acidic group) 10.5; (basic group) 8.28.

`CS(=O)(=O)c1ccc(S(=O)(=O)NCc2ccccc2)cc1`: the pKa (acidic group) turned out to be 10.2.

With `C1CN(CC2CO2)CCO1` (stereo unspecified), the pKa (basic group) turned out to be 5.88. `Nc1ccccc1O` came in with a pKa (acidic group) of 9.71 and a pKa (basic group) of 4.55.

`C=CCC1(C2=CCCCC2)C(=O)NC(=S)NC1=O`: the pKa (acidic group) was found to be 7.09.

In the case of `[NH3+]CCCCc1cccnc1`, the pKa (basic group) worked out at 5.52. With `Nc1ncnc2cn[nH]c12`, the pKa worked out at 10.2 (acidic group) and 5 (basic group).

Under “basic group”, `CCCN(CCC)CC(=O)Nc1c(C)cccc1C` displayed a pKa of 7.68. For the setting “acidic group”, `COc1ccccc1/C=C/C(=O)O` yielded a pKa of 4.57. On to `CN(C)Cc1ccccc1`, for which the pKa (basic group) was 8.97. Still for that read-out and setting: the figure for `COc1cc(S(C)=O)ccc1-c1cn2ccnc(OC)c2n1` (stereo unspecified) is 2.46. `Cc1ccccc(=O)c1O` had a pKa (acidic group) of 7.92. The same measure, in the same setting: the figure for `O=C(O)CCc1ccoc1` is 4.44. The same measure, in the same setting: the figure for `Cc1ccccc1SCC(=O)O` is 3.46; for `Cc1ccc(I)cc1C(=O)O` it is 3.62. Molecule `C[C@@H]1[C@@H](N)[C@H]1N` yielded a pKa (basic group) of 8.98.

`CC(=O)c1ccc(O)c(=O)cc1`: the pKa (acidic group) stood at 5.01. `Nc1ccc2c(c1)Cc1c(F)cccc1-2` gave a pKa (basic group) of 3.54. Turning to `N#CCc1ccc(C(=O)O)cc1`, under “acidic group”, the pKa worked out at 4.09. `Cc1ccccc1/C(=N\CCC[NH+](C)C)c1ccccc1Cl` showed a pKa (basic group) of 3.37.

Where the note is “acidic group”, `CCCCSC(=N)c1ccccc1` had a pKa of 8.21. Still for that read-out and setting: then `CCc1c(-c2ccccc2)nn(C2CC[NH+](C)CC2)c1O`, with 5.9; and `O=C(O)[C@@H]1CC[C@H](C(=O)O)S1`, with 3.34; and `CC(=O)CC(=O)Nc1ccc(C)cc1`, with 10.2. For the setting “basic group”, `COc1ccc(CCN)cc1` displayed a pKa of 9.79. In turn, `O=C(O)c1cccccc1=O` registered a pKa (acidic group) of 3.73.

`COc1ccc(-c2nc3cnccc3n2C)c(OC)c1` displayed a pKa (basic group) of 6.16. Same read-out and setting: then `O=C([O-])c1ccncc1`, with 4.9.

`CN(C)CCC/N=C(\c1ccccc1)c1cccc2ccccc12` returned a pKa (basic group) of 9. On the same count and under the same terms, then `C[NH+](C)CCCNc1ccnc2cc([N+](=O)[O-])ccc12`, with 6.77. On the same count and under the same terms, the figure for `[SH2+]c1cccc2ncccc12` is 3.31. Regarding `C=C(C)/C=C(/C(=O)O)c1ccc([N+](=O)[O-])cc1`, the pKa (acidic group) amounted to 4.4. The molecule `CN(C)CCCN(C)C(=O)/C=N/[O-]` showed a pKa (basic group) of 9.83. As for `Cc1cccnn1`, the pKa (basic group) turned out to be 3.46. The same measure, in the same setting: the figure for `CCCCCCCCN(CC(C)O)CC(O)CC` (stereo unspecified) is 8.1; for `CCCCCCCCNCc1ccc(C)cc1` it is 9.47. Regarding `Cc1ccc(Sc2ccc([N+](=O)[O-])cc2C(=O)O)cc1`, under “acidic group”, the pKa stood at 2.84. On to `CN(C)CCCCCNC(=O)/C=N/[O-]`, for which the pKa (basic group) was determined as 10.3. As for `O=C1CNC(=O)N1`, the pKa (acidic group) worked out at 9.12. For `CCC/C=C(/C)C(=O)O`, where the note is “acidic group”, the pKa is 4.44. Take `Nc1ccc2nc3ccccc3nc2c1`: the pKa (basic group) amounted to 4.52. As to `CCCc1ncnc2c(O)cccc12`, under “acidic group”, the pKa turned out to be 8.82. On the same count and under the same terms, the figure for `Nc1ccc(O)c([N+](=O)[O-])c1` is 7.81; for `C[NH+](C)CCCNC(=O)/C=N/O` it is 8.68; for `Cc1csc(S(N)(=O)=O)n1` it is 8.35. Still for that read-out and setting: then `O=C([O-])/C=C\c1ccccc1O`, with 10.7.

Molecule `COc1ccc(-c2nc3ncccc3[nH]2)c(OC)c1` gave a pKa (basic group) of 4.63.

Turning to `CC(O)c1cccc(O)c1CO` (stereo unspecified), the pKa (acidic group) came out at 9.9.

For the setting “basic group”, `CCOC(=O)c1cnc2c([N+](=O)[O-])cccc2c1[O-]` returned a pKa of 8.9. In turn, `Oc1cncc2cccnc12` had a pKa (acidic group) of 8.33.

`C[n+]1ccccc1N` yielded a pKa (acidic group) of 12.2. On the same count and under the same terms, the figure for `CCCCSCC(=O)O` is 3.81; for `C[C@H]1CC[C@H](C(=O)O)CC1` it is 4.89; for `C[N+](C)(C)CCc1ccc(O)cc1` it is 9.8.

In the case of `Nc1ccc(C(=O)O)cc1`, the pKa was 4.84 (acidic group) and 2.41 (basic group). Regarding `Cc1ccc(-c2nnc(-c3ccccc3)o2)cc1`, for the setting “basic group”, the pKa was 1.81. In turn, `O=C(O)C[C@]1(O)C[C@H]2C=C[C@@H]1C2` came in with a pKa (acidic group) of 4.36. Same read-out and setting: the figure for `C[n+]1ccc2cccc(O)c2c1` is 5.81. Regarding `CN(C)c1ncnc2c1ncn2[C@H]1O[C@@H](CO)[C@H](O)[C@@H]1O`, for the setting “basic group”, the pKa was 3.65.

For the setting “basic group”, `CC(C)(C)NCCCCCCNC(C)(C)C` had a pKa of 11. Regarding `CC1(C(=O)O)CCC=[N+]1[O-]` (stereo unspecified), under “acidic group”, the pKa came out at 2.95. `CCNCCN` displayed a pKa (basic group) of 10.5.

The molecule `CCCCCCCCCCN(CCO)CC(C)O` (stereo unspecified) had a pKa (basic group) of 7.5. The same measure, in the same setting: then `C1CCN(C2CCNCC2)CC1`, with 10.7. `O=C(O)Cn1cnnn1` had a pKa (acidic group) of 2.27. `Brc1cc2cccnc2c2ncccc12`: the pKa (basic group) stood at 4.2. Still for that read-out and setting: the figure for `CN(C)c1ccc(/C=C/c2cc(N)c3ccccc3n2)cc1` is 9.7; for `Nc1ccccn1` it is 6.95. Under “acidic group”, `C[N+]1(CCCCC(=O)O)CCCCC1` displayed a pKa of 4.33.

Take `NNC(=O)c1ccc(N)cc1`: under “basic group”, the pKa was determined as 3.56. Regarding `O=P([O-])(O)C([NH2+]Cc1ccccn1)c1ccccc1O` (stereo unspecified), the pKa (acidic group) is 5.15 and the pKa (basic group) worked out at 3.12. Under “basic group”, `c1ccc2c(c1)N1CC[NH+]2CC1` gave a pKa of 2.5. The same measure, in the same setting: then `O=C([O-])[C@@H](O)Cc1c[nH]cn1`, with 7.32; and `CCNCCCC(=O)[O-]`, with 11.

`CCNC(=O)C1CCCCN1` (stereo unspecified) came in with a pKa (basic group) of 8.6. Turning to `Cc1n[nH]c(C)c1[N+](=O)[O-]`, the pKa is 10.3 (acidic group) and -0.22 (basic group). In the case of `CCC[Si](C)(CCC)CC(=O)O`, the pKa (acidic group) was found to be 5.65.

As to `CC=O`, the pKa (acidic group) was found to be 16.8 and the pKa (basic group) is -0.57.
